Converted amounts (≈) assume the structure as drawn.
Tests used:
[1] = biological target: T1, 1-deoxy-D-xylulose-5-phosphate synthase (Mycobacterium tuberculosis, UniProt P9WNS3); experiment: Inhibition of Mycobacterium tuberculosis cloned 1-deoxy-D-xylulose-5-phosphate synthase expressed in Escherichia coli
T1 sequence (P9WNS3 whole entry): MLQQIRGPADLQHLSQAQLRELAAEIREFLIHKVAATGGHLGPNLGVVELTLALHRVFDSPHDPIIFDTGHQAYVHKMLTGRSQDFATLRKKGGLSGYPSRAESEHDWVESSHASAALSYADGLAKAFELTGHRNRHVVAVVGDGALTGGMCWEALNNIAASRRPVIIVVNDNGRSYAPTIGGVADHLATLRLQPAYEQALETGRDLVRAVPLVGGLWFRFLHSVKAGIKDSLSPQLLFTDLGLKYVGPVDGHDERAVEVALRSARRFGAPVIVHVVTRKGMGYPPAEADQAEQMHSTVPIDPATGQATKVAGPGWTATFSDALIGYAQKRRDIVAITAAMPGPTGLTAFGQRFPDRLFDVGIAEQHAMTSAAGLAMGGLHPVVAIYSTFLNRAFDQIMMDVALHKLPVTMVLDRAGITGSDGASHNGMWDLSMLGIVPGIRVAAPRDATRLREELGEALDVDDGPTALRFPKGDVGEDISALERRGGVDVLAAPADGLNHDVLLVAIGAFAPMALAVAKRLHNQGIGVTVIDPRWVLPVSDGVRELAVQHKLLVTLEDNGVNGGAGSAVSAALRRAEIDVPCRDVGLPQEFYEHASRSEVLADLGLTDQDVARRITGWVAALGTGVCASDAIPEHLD

[2] = test system: Mycobacterium tuberculosis; experiment: Antituberculosis activity against Mycobacterium tuberculosis; assay type: functional
[3] = test system: Vero; experiment: Cytotoxicity against african green monkey Vero cells; assay type: cell-based; conditions: Chlorocebus sabaeus
[4] = Selectivity index, ratio of IC50 for african green monkey Vero cells to MIC for Mycobacterium tuberculosis; assay type: functional
[5] = biological target: T2, Transketolase (Homo sapiens, UniProt P29401); experiment: Inhibition of human recombinant transketolase expressed in Escherichia coli
T2 sequence (P29401 whole entry): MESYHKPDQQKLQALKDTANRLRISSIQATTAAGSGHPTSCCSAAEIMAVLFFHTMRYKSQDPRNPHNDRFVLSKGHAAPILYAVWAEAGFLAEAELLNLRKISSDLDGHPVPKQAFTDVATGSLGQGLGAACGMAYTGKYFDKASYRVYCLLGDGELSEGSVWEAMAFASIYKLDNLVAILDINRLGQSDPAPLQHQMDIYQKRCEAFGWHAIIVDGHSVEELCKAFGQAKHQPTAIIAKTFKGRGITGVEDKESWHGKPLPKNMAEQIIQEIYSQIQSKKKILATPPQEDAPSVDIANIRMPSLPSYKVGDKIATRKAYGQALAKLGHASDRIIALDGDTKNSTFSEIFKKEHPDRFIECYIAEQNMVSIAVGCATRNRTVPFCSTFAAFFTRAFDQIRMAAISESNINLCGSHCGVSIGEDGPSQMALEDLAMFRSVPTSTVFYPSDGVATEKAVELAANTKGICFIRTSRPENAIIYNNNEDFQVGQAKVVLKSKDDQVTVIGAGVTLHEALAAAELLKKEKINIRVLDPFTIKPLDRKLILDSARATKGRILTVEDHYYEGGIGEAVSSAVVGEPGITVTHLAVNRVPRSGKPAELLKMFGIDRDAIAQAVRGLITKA

| SMILES | IC50 [1] | further results |
| --- | --- | --- |
| Cc1nn2c(=O)cc(CSc3nnnn3-c3ccccc3)[nH]c2c1-c1ccc(Cl)cc1 | 55.1 µM | – |
| COc1ccc(-c2cc(=O)n3nc(C)c(-c4ccc(OC)cc4)c3[nH]2)cc1 | 42.4 µM | MIC [2]: 61.8 µM (≈ 22.3 µg/mL); IC50 [3]: 80.9 µM; Selectivity Index [4]: 2.1 |
| O=c1cc(Cc2ccccc2)[nH]c2c(-c3ccccc3)c(C(F)(F)F)nn12 | 71.1 µM | – |
| O=c1cc(Cc2ccccc2)[nH]c2c(-c3ccc(Cl)cc3)cnn12 | 114 µM | IC50 [5]: 3.9 µM |
| COc1ccccc1-c1cc(=O)n2nc(C)c(-c3ccc(Br)cc3)c2[nH]1 | 53.5 µM | – |
| Cc1nn2c(=O)cc(CSc3ccc(Cl)cc3)[nH]c2c1-c1ccccc1 | 63.7 µM | – |
| COCc1cc(=O)n2nc(C)c(-c3ccc(Cl)cc3)c2[nH]1 | > 200 µM | – |
| COc1ccc(-c2c(C(F)(F)F)nn3c(O)cc(-c4ccccc4)nc23)cc1 | 20.2 µM | – |
| COc1ccc(-c2cc(=O)n3nc(C)c(-c4ccc(F)cc4)c3[nH]2)cc1 | 10.6 µM | MIC [2]: 7.7 µM (≈ 2.69 µg/mL); IC50 [3]: 35.6 µM |
| Cc1cc(=O)n2nc(C(F)(F)F)c(-c3ccc(Cl)cc3)c2[nH]1 | 98.4 µM | – |
| COC(=O)Cc1cc(=O)n2nc(C(F)(F)F)c(-c3ccc(Br)cc3)c2[nH]1 | 73 µM | – |
| Cc1nn2c(=O)cc(CSc3ccc(Cl)cc3)[nH]c2c1-c1ccc(Cl)cc1 | 41.4 µM | – |
| Cc1nn2c(=O)cc(-c3ccc4ccccc4c3)[nH]c2c1-c1ccccc1 | 19.5 µM | – |
| O=c1cc(CCl)[nH]c2c(-c3ccccc3)cnn12 | > 200 µM | – |
| O=c1cc(Cc2ccccc2)[nH]c2c(-c3ccc(Cl)cc3)c(C(F)(F)F)nn12 | 14 µM | – |
| Cc1nn2c(=O)cc(-c3ccccc3)[nH]c2c1-c1ccc(Cl)cc1 | 34.2 µM | MIC [2]: 14.2 µM (≈ 4.77 µg/mL); IC50 [3]: 39.5 µM; Selectivity Index [4]: 4.6 |
| Cc1nn2c(=O)cc(-c3ccccc3)[nH]c2c1-c1ccccc1 | 30.6 µM | – |
| CCOC(=O)Cc1c(C)nc2c(-c3ccccc3)cnn2c1O | > 200 µM | – |
| Cc1[nH]c2c(-c3ccc(Cl)cc3)c(C(F)(F)F)nn2c(=O)c1Cc1ccccc1 | > 200 µM | – |
| COc1ccc(-c2cc(=O)n3nc(C)c(-c4ccc(Cl)cc4)c3[nH]2)cc1 | 10.9 µM | MIC [2]: 7.6 µM (≈ 2.78 µg/mL); IC50 [3]: 16 µM |
| Cc1cc(=O)n2ncc(-c3ccc(Cl)cc3)c2[nH]1 | > 200 µM | – |
| Cc1cc(=O)n2nc(C(F)(F)F)c(-c3ccc(Br)cc3)c2[nH]1 | > 200 µM | – |
| CCc1nn2c(=O)cc(-c3ccc(OC)cc3)[nH]c2c1-c1ccc(Cl)cc1 | 19.7 µM | – |
| Oc1cc(-c2ccccc2)nc2c(-c3ccccc3)c(C(F)(F)F)nn12 | 23 µM | – |
| FC(F)(F)c1cc(-c2ccc(Cl)cc2)nc2c(-c3ccc(Cl)cc3)cnn12 | > 200 µM | – |
| COc1ccc(-c2c(C)nn3c(=O)cc(-c4ccccc4)[nH]c23)cc1 | 90.7 µM | – |
| Brc1cccc(-c2cnn3c(-c4ccccc4)cc(-c4ccccc4)nc23)c1 | > 200 µM | – |
| COCc1cc(=O)n2ncc(-c3ccc(Cl)cc3)c2[nH]1 | > 200 µM | – |
